Laboratory results published in patent US20250295639A1, “METHODS FOR TREATING HEART DISEASES” (Cytokinetics, Incorporated, priority 2024, published 2025).
Where “and” joins values, the source holds several entries; their conditions need not be identical. Equal values may be shown once.

Columns and labels:
[1] = test system: patients with symptomatic oHCM; assay: SEQUOIA-HCM secondary analysis: clinical response / responder analyses (NYHA class, KCCQ-CSS, hemodynamic response, exercise capacity); assay type: in vivo, human
Description: A secondary objective of this trial was to evaluate the effect of aficamten on patient health status, as determined by changes in the Kansas City Cardiomyopathy Questionnaire-Clinical Summary Score (KCCQ-CSS) from baseline to Week 12 and Week 24. A further secondary objective of this trial was to evaluate the effect of aficamten on New York Heart Association (NYHA) Functional Classification, as determined by the proportion of patients with ≥1 class improvement in NYHA Functional Class from baseline to Week 12 and Week 24. An exploratory objective of this trial was to evaluate the effect of aficamten on exercise capacity and functional class, as determined by comparing with baseline, the number of patients at Week 24 achieving either (1) change from baseline of ≥1.5 mL/kg/min in pVO2 AND ≥1 class improvement in NYHA Functional Class; or (2) Change from baseline of ≥3.0 mL/kg/min in pVO2 AND no worsening of NYHA Functional Class. A further exploratory objective of this trial was to evaluate the effect of aficamten on patient response over time, as determined by (1) […]; (2) proportion of patients with resting LVOT-G<30 mmHg, post-Valsalva LVOT-G<50 mmHg, […]; and (3) proportion of patients with resting LVOT-G<30 mmHg, post-Valsalva LVOT-G<50 mmHg, […] Secondary Analysis of the Results of the SEQUOIA-HCM Study. In a sub-analysis of the results of Example 8 (i.e, the results of the SEQUOIA-HCM Study) we sought to comprehensively characterize the broad clinical impact of aficamten with respect to responder analyses across a number of clinically relevant, patient-centric outcome domains. […] For patients with missing data, the last available observation (week 8 to week 20) was used. Patients with no available data on or after week 8 were classified as not meeting the efficacy criteria. Patients were then classified according to the number of efficacy outcome definitions that they met. Baseline characteristics were summarized using means and standard deviations or median and interquartile for continuous normal and skewed variables, as well as counts and percentages for categorical variables. These characteristics were compared across groups using trend tests (linear regression, chi-squared tests of trend, and Cuzick's non-parametric trend tests). Proportions of patients meeting each efficacy outcome definition were compared between treatment groups using chi-squared tests, and linear regression was used to assess the treatment effect of aficamten vs placebo on change in efficacy outcomes while also adjusting for baseline value, CPET modality at baseline and beta blocker use at baseline. No adjustments were made for multiple comparisons. Two-sided p-values less than 0.05 were considered statistically significant.

[2] = test system: patients with symptomatic obstructive HCM (oHCM); assay: Phase 2 dose finding clinical trial of aficamten in symptomatic oHCM (10 weeks, Cohort 1 and Cohort 2); assay type: in vivo, human
Description: Overall, the incidence of adverse events was similar between treatment arms. […] No new cases of atrial fibrillation were reported by the investigators. In this dose-range finding trial, one patient experienced a transient decrease in left ventricular ejection fraction (LVEF) that required dose adjustment but not dose interruption. […] A multi-center, randomized, placebo-controlled, double-blind, dose finding phase 2 clinical trial of aficamten in patients with symptomatic obstructive HCM (oHCM) was conducted and described as Example 2 in WO 2024/031016 and in U.S. Patent Publication US-2024-0115554-A1, the disclosures of which are incorporated by reference herein.

[3] = 142 patients treated with aficamten
[4] = of the 101 aficamten symptomatic responders

CCc1nc(-c2ccc3c(c2)CC[C@H]3NC(=O)c2cnn(C)c2)no1 [aficamten, (R)—N-(5-(5-ethyl-1,2,4-oxadiazol-3-yl)-2,3-dihydro-1H-inden-1-yl)-1-methyl-1H-pyrazole-4-carboxamide]
patients with moderate to large KCCQ-CSS improvement of ≥10 to <20 ([1]; 142 patients on aficamten): 27% | patients with no change or a decrease in KCCQ-CSS score (<5 points) ([1]; 142 patients on aficamten): 37% | patients with small KCCQ-CSS improvement of ≥5 to <10 ([1]; 142 patients on aficamten): 13% | patients with very large KCCQ-CSS change of ≥20 ([1]; 142 patients on aficamten): 22% | patients improved from NYHA class II to I [1, 3]: 39% | patients improved from NYHA class III to I [1, 3]: 11% | patients improved from NYHA class III to II [1, 3]: 9% | patients with no change in NYHA class [1, 3]: 38% | patients worsened from NYHA class II to class III [1, 3]: 2% | >1.5 mL/kg/min increase in pVO2 and ≥1 NYHA class improvement or ≥3.0 mL/kg/min increase in pVO2 and no worsening of NYHA class ([1]; Aficamten (N = 142)): 60 (42) n (%) | ≥1.5 mL/kg/min increase in pVO2 and ≥1 NYHA class improvement ([1]; Aficamten (N = 142)): 44 (31) n (%) | ≥3.0 mL/kg/min increase in pVO2 and no worsening of NYHA class ([1]; Aficamten (N = 142)): 37 (26) n (%) | ≥3.0 mL/kg/min increase in pVO2 and ≥1 NYHA class improvement ([1]; Aficamten (N = 142)): 21 (15) n (%) | responder endpoint, difference vs. placebo ([1]; Week 24): 28.7% | responder endpoint, number needed to treat (NNT) ([1]; Week 24): 3 | patients with improvement of ≥1 NYHA functional class and/or ≥10 point increase in KCCQ-CSS (symptomatic response) ([1]; aficamten group, week 2): 36% | patients with complete hemodynamic response (rest gradient <30 mmHg and Valsalva gradient <50 mmHg) ([1]; aficamten group, week 8): 70% | patients with improvement of ≥1 NYHA functional class and/or ≥10 point increase in KCCQ-CSS (symptomatic response) ([1]; aficamten group, week 8): 58% | patients achieving ≥1 of the 4 prespecified clinical response measures ([1]; aficamten group, week 24): 97% | patients improved in 2 clinical response measures ([1]; aficamten group, week 24): 26% | patients improved in 3 clinical response measures ([1]; aficamten group, week 24): 39% | patients improved in all 4 clinical response measures ([1]; aficamten group, week 24): 23% | patients who achieved one clinical response measure ([1]; aficamten group, week 24): 9% | patients with improvement in exercise capacity, pVO2 of ≥1.5 mL/kg/min ([1]; aficamten group, week 24): 47% | patients with improvement of ≥1 NYHA functional class and/or ≥10 point increase in KCCQ-CSS (symptomatic response) ([1]; aficamten group, week 24): 71% | patients meeting responder endpoint (pVO2 ≥1.5 mL/kg/min and ≥1 NYHA improvement, or pVO2 ≥3.0 mL/kg/min and no worsening in NYHA) ([1]; aficamten, Week 24): 42% and 42.3% | patients who achieved pVO2 of ≥1.5 mL/kg/min and ≥1 improvement in NYHA class ([1]; aficamten, Week 24): 31% | patients with pVO2 ≥3.0 mL/kg/min and no worsening in NYHA ([1]; aficamten, Week 24): 26% | patients who resolved their symptoms completely (NYHA class I) ([1]; end of the treatment period): close to half of patients | symptomatic responders with improvement in both NYHA and KCCQ [1, 4]: 51% | symptomatic responders with ≤10 point improvement in KCCQ but ≥1 improvement in NYHA functional class [1, 4]: 31% | symptomatic responders with ≥10 point improvement in KCCQ-CSS and no improvement in NYHA class [1, 4]: 18% | Common Rate Difference (vs. Placebo) ([1]; pVO2/NYHA composite responder): 29 | tolerability ([2]; 10 weeks treatment): well tolerated | patients achieving target goal of treatment (resting gradient <30 mmHg and post-Valsalva gradient <50 mmHg) ([2]; Cohort 1, Week 10): 78.6% | patients achieving target goal of treatment (resting gradient <30 mmHg and post-Valsalva gradient <50 mmHg) ([2]; Cohort 2, Week 10): 92.9% | LVEF after the end of treatment (reversibility) ([2]; both cohorts): returned towards baseline within two weeks | dose dependence of observed reductions in LVOT-G ([2]; human, in vivo): dose dependent | new cases of atrial fibrillation ([2]; human, in vivo): No new cases | serious adverse events attributed to aficamten ([2]; human, in vivo): No serious adverse events | time of onset of reductions in LVOT-G after initiating treatment ([2]; human, in vivo): within two weeks
